Experiments:
[1] = The drug is tested on Bifidobacterium breve strain: DSM20213 for biotransformation. The drug concentrations were measured before and after a 12-h incubation by liquid-chromatography-coupled mass spectrometry (LC–MS); settings: 2 µM
[2] = The drug is tested on Collinsella aerofaciens strain: ATCC25986 for biotransformation. The drug concentrations were measured before and after a 12-h incubation by liquid-chromatography-coupled mass spectrometry (LC–MS); settings: 2 µM
[3] = The drug is tested on Alistipes indistinctus strain: DSM22520 for biotransformation. The drug concentrations were measured before and after a 12-h incubation by liquid-chromatography-coupled mass spectrometry (LC–MS); settings: 2 µM
[4] = The drug is tested on Bacteroides cellulosilyticus strain: DSM14838 for biotransformation. The drug concentrations were measured before and after a 12-h incubation by liquid-chromatography-coupled mass spectrometry (LC–MS); settings: 2 µM
[5] = The drug is tested on Bacteroides fragilis strain: HMW610 for biotransformation. The drug concentrations were measured before and after a 12-h incubation by liquid-chromatography-coupled mass spectrometry (LC–MS); settings: 2 µM
[6] = The drug is tested on Anaerotruncus colihominis strain: DSM17241 for biotransformation. The drug concentrations were measured before and after a 12-h incubation by liquid-chromatography-coupled mass spectrometry (LC–MS); settings: 2 µM
[7] = The drug is tested on Clostridium scindens strain: ATCC35704 for biotransformation. The drug concentrations were measured before and after a 12-h incubation by liquid-chromatography-coupled mass spectrometry (LC–MS); settings: 2 µM
[8] = The drug is tested on Clostridium sporogenes strain: ATCC15579 for biotransformation. The drug concentrations were measured before and after a 12-h incubation by liquid-chromatography-coupled mass spectrometry (LC–MS); settings: 2 µM
[9] = The drug is tested on Enterococcus faecalis strain: V583 for biotransformation. The drug concentrations were measured before and after a 12-h incubation by liquid-chromatography-coupled mass spectrometry (LC–MS); settings: 2 µM
[10] = The drug is tested on Edwardsiella tarda strain: ATCC23685 for biotransformation. The drug concentrations were measured before and after a 12-h incubation by liquid-chromatography-coupled mass spectrometry (LC–MS); settings: 2 µM
[11] = The drug is tested on Enterobacter cancerogenus strain: ATCC35316 for biotransformation. The drug concentrations were measured before and after a 12-h incubation by liquid-chromatography-coupled mass spectrometry (LC–MS); settings: 2 µM
[12] = bifidobacterium adolescentis, 12 h, 2 µM
Description: The drug is tested on Bifidobacterium adolescentis strain: ATCC 15703 for biotransformation. The drug concentrations were measured before and after a 12-h incubation by liquid-chromatography-coupled mass spectrometry (LC–MS)

[13] = bacteroides fragilis, 12 h, 2 µM
Description: The drug is tested on Bacteroides fragilis strain: 3397 (T10) for biotransformation. The drug concentrations were measured before and after a 12-h incubation by liquid-chromatography-coupled mass spectrometry (LC–MS)

[14] = bacteroides thetaiotaomicron, 12 h, 2 µM
Description: The drug is tested on Bacteroides thetaiotaomicron strain: VPI-5482 for biotransformation. The drug concentrations were measured before and after a 12-h incubation by liquid-chromatography-coupled mass spectrometry (LC–MS)

[15] = bacteroides thetaiotaomicron, 12 h, 2 µM; remark: listed apart in the source
Description: The drug is tested on Bacteroides thetaiotaomicron strain: 7330 for biotransformation. The drug concentrations were measured before and after a 12-h incubation by liquid-chromatography-coupled mass spectrometry (LC–MS)

[16] = anaerostipes sp., 12 h, 2 µM
Description: The drug is tested on Anaerostipes sp. strain: fecal isolate for biotransformation. The drug concentrations were measured before and after a 12-h incubation by liquid-chromatography-coupled mass spectrometry (LC–MS)

[17] = roseburia intestinalis, 12 h, 2 µM
Description: The drug is tested on Roseburia intestinalis strain: L1-82 for biotransformation. The drug concentrations were measured before and after a 12-h incubation by liquid-chromatography-coupled mass spectrometry (LC–MS)

[18] = segatella copri, 12 h, 2 µM
Description: The drug is tested on Prevotella copri strain: DSM18205 for biotransformation. The drug concentrations were measured before and after a 12-h incubation by liquid-chromatography-coupled mass spectrometry (LC–MS)

[19] = bacteroides fragilis, 12 h, 2 µM; remark: listed apart in the source
Description: The drug is tested on Bacteroides fragilis strain: NCTC 9343 for biotransformation. The drug concentrations were measured before and after a 12-h incubation by liquid-chromatography-coupled mass spectrometry (LC–MS)

Measured: Bacterial Biotransformation

CN(C(=O)CN(CCO)CC(=O)N(C)C(C)(C)Cc1ccccc1)C(C)(C)Cc1ccccc1 [OXETHAZAINE]
not listed: [18] | [19]
Compound NOT metabolized: all other assays above

COc1ccc2c3c1O[C@H]1C[C@@H](O)C=C[C@@]31CCN(C)C2 [GALANTAMINE]
Compound metabolized: [3] | [5] | [9] | [13] | [14] | [15] | [18] | [16]
not listed: [19]
Compound NOT metabolized: all other assays above

Nc1nc(N)nc(-c2cc(Cl)ccc2Cl)n1.O=C(O)/C=C\C(=O)O [IRSOGLADINE MALEATE]
Compound NOT metabolized: all assays above

CC(=O)CCCCn1c(=O)c2c(ncn2C)n(C)c1=O [PENTOXIFYLLINE]
not listed: [7]
Compound NOT metabolized: all other assays above

Source: ChEMBL document CHEMBL5303573, “Mapping human microbiome drug metabolism by gut bacteria and their genes” (Nature, 2019)
